Laboratory results reported in PMC4052943 (BioMed Research International, 2014).
Where two headings read alike, the source gives them in different places.

Legend:
[1] = test system: Salmonella typhimurium TA97a; details: 250 µM;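 also: compound and mutagen preincubated together 30 min at 37 °C before adding bacteria, then plated on minimal glucose agar for 48 h and His+ revertant colonies counted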
Protocol: (§1) In the preincubation experiment, test compounds and mutagen, each having a volume of 0.1 mL of varying concentrations, were preincubated at 37°C for 30 min and then 0.1 mL of 1 × 10^7 CFU/mL density of the bacterial culture was added, followed by the addition of 2.5 mL of top agar at 45°C (containing 0.5% NaCl and 0.6% agar) supplemented with 0.5 mM histidine-biotin. […] The combined solutions were vortexed and poured onto minimal glucose plates (40% glucose solution and Vogel Bonner medium). The plates were incubated at 37°C for 48 h and the numbers of histidine-independent revertants colonies were scored.
(§2) Survival of the bacteria was routinely monitored for each experiment. Parallel controls were run with compounds alone at all concentrations to test the possible toxicity. The concentrations of the test samples for investigating the antimutagenicity were 50, 100, 200, and 500 μM. […] All the test samples and mutagens were dissolved in DMSO (final conc., 0.01%). […] Plates were set up in triplicate for each concentration and the entire experiment was repeated three times. Inhibition of mutagenicity was expressed as percentage decrease of reverse mutation and calculated as (1) Percent inhibition=[(a−b)/(a−c)]×100, where a = number of histidine revertants induced by mutagen, b = number of histidine revertants induced by mutagen in the presence of test compound, and c = number of revertants induced in negative control.

[2] = test system: Salmonella typhimurium TA100; details: 250 µM;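 also: compound and mutagen preincubated together 30 min at 37°C before bacteria added, then plates incubated 48 h at 37°C, inhibition relative to mutagen-alone revertants after subtracting the negative control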
Protocol: as §1, §2

[3] = test system: Salmonella typhimurium TA102; assay: Ames antimutagenicity assay (preincubation); details: for inhibition at 50 µM / inhibition at 100 µM / inhibition at 250 µM / inhibition at 500 µM: Salmonella enterica, TYPHIMURIUM;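 as to all read-outs here: compound and mutagen preincubated 30 min at 37 °C before adding bacteria, His+ revertant colonies counted after 48 h at 37 °C, inhibition relative to mutagen-alone minus negative-control revertants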
Protocol: as §1, §2

[4] = test system: Salmonella typhimurium TA98; details: 250 µM;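 also: test compound and mutagen preincubated 30 min at 37°C before adding bacteria, then His+ revertant colonies counted after 48 h plating, inhibition relative to mutagen-only versus negative-control revertants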
Protocol: as §1, §2

[5] = test system: Salmonella typhimurium strains TA97a, TA98, TA100, and TA102
Protocol: as §1, §2

[6] = test system: Salmonella typhimurium TA102; details: 250 µM;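 also: compound and mutagen preincubated 30 min at 37 °C before adding bacteria, His+ revertant colonies counted after 48 h at 37 °C, inhibition relative to mutagen-alone minus negative-control revertants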
Protocol: as §1, §2

[7] = test system: Salmonella typhimurium TA100; assay: Ames antimutagenicity assay (preincubation); details: for inhibition at 50 µM / inhibition at 100 µM / inhibition at 250 µM / inhibition at 500 µM: Salmonella enterica, TYPHIMURIUM;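 as to all read-outs here: compound and mutagen preincubated together 30 min at 37°C before bacteria added, then plates incubated 48 h at 37°C, inhibition relative to mutagen-alone revertants after subtracting the negative control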
Protocol: as §1, §2

O=c1oc2c(O)c(O)cc3c(=O)oc4c(O)c(O)cc1c4c23 [Ellagic acid, ellagic acid]
inhibition [1]: 44.9% | inhibition [2]: 67.7% | inhibition at 50 µM ([3]; read-out: % inhibition of mutagenicity, TA 102, 50 μM + 2AF, S9): 17.5% | inhibition at 50 µM ([3]; read-out: % inhibition of mutagenicity, TA 102, 50 μM + BP, S9): 11.5% | inhibition at 50 µM ([3]; read-out: % inhibition of mutagenicity, TA 102, 50 μM + MMS, no S9): 18.5% | inhibition at 50 µM ([3]; read-out: % inhibition of mutagenicity, TA 102, 50 μM + NaN3, no S9): 21.9% | inhibition at 100 µM ([3]; read-out: % inhibition of mutagenicity, TA 102, 100 μM + 2AF, S9): 45.9% | inhibition at 100 µM ([3]; read-out: % inhibition of mutagenicity, TA 102, 100 μM + BP, S9): 23.6% | inhibition at 100 µM ([3]; read-out: % inhibition of mutagenicity, TA 102, 100 μM + MMS, no S9): 30.3% | inhibition at 100 µM ([3]; read-out: % inhibition of mutagenicity, TA 102, 100 μM + NaN3, no S9): 40.3% | inhibition at 250 µM ([3]; read-out: % inhibition of mutagenicity, TA 102, 250 μM + BP, S9): 46.6% | inhibition at 250 µM ([3]; read-out: % inhibition of mutagenicity, TA 102, 250 μM + MMS, no S9): 44.3% | inhibition at 250 µM ([3]; read-out: % inhibition of mutagenicity, TA 102, 250 μM + NaN3, no S9): 50.7% | inhibition at 500 µM ([3]; read-out: % inhibition of mutagenicity, TA 102, 500 μM + 2AF, S9): 89% | inhibition at 500 µM ([3]; read-out: % inhibition of mutagenicity, TA 102, 500 μM + BP, S9): 83.7% | inhibition at 500 µM ([3]; read-out: % inhibition of mutagenicity, TA 102, 500 μM + MMS, no S9): 72.4% | inhibition at 500 µM ([3]; read-out: % inhibition of mutagenicity, TA 102, 500 μM + NaN3, no S9): 62.3% | Number of His+ revertants colonies/plate ([3]; TA 102, 50 μM + 2AF, S9): 1276.0 ± 38.0 colonies/plate | Number of His+ revertants colonies/plate ([3]; TA 102, 50 μM + BP, S9): 653.0 ± 34.7 colonies/plate | Number of His+ revertants colonies/plate ([3]; TA 102, 50 μM + MMS, no S9): 1071.0 ± 16.7 colonies/plate | Number of His+ revertants colonies/plate ([3]; TA 102, 50 μM + NaN3, no S9): 345.3 ± 26.7 colonies/plate | Number of His+ revertants colonies/plate ([3]; TA 102, 100 μM + 2AF, S9): 924.0 ± 25.3 colonies/plate | Number of His+ revertants colonies/plate ([3]; TA 102, 100 μM + BP, S9): 595.0 ± 24.1 colonies/plate | Number of His+ revertants colonies/plate ([3]; TA 102, 100 μM + MMS, no S9): 956.0 ± 19.6 colonies/plate | Number of His+ revertants colonies/plate ([3]; TA 102, 100 μM + NaN3, no S9): 328.0 ± 28.2 colonies/plate | Number of His+ revertants colonies/plate ([3]; TA 102, 250 μM + BP, S9): 514.0 ± 21.4 colonies/plate | Number of His+ revertants colonies/plate ([3]; TA 102, 250 μM + MMS, no S9): 810.0 ± 19.1 colonies/plate | Number of His+ revertants colonies/plate ([3]; TA 102, 250 μM + NaN3, no S9): 308.0 ± 23.6 colonies/plate | Number of His+ revertants colonies/plate ([3]; TA 102, 500 μM + 2AF, S9): 431.0 ± 13.6 colonies/plate | Number of His+ revertants colonies/plate ([3]; TA 102, 500 μM + BP, S9): 366.0 ± 25.0 colonies/plate | Number of His+ revertants colonies/plate ([3]; TA 102, 500 μM + MMS, no S9): 506.0 ± 13.5 colonies/plate | Number of His+ revertants colonies/plate ([3]; TA 102, 500 μM + NaN3, no S9): 288.3 ± 19.2 colonies/plate | inhibition [4]: 56.3% | mutagenic activity [5]: No mutagenic activity | inhibition [6]: 74.1% | inhibition at 50 µM ([7]; read-out: % inhibition of mutagenicity, TA 100, 50 μM + 2AF, S9): 22.5% | inhibition at 50 µM ([7]; read-out: % inhibition of mutagenicity, TA 100, 50 μM + BP, S9): 21.8% | inhibition at 50 µM ([7]; read-out: % inhibition of mutagenicity, TA 100, 50 μM + MMS, no S9): 8% | inhibition at 50 µM ([7]; read-out: % inhibition of mutagenicity, TA 100, 50 μM + NaN3, no S9): 11.4% | inhibition at 100 µM ([7]; read-out: % inhibition of mutagenicity, TA 100, 100 μM + 2AF, S9): 46.1% | inhibition at 100 µM ([7]; read-out: % inhibition of mutagenicity, TA 100, 100 μM + BP, S9): 42.8% | inhibition at 100 µM ([7]; read-out: % inhibition of mutagenicity, TA 100, 100 μM + MMS, no S9): 26.4% | inhibition at 100 µM ([7]; read-out: % inhibition of mutagenicity, TA 100, 100 μM + NaN3, no S9): 25.6% | inhibition at 250 µM ([7]; read-out: % inhibition of mutagenicity, TA 100, 250 μM + BP, S9): 70% | inhibition at 250 µM ([7]; read-out: % inhibition of mutagenicity, TA 100, 250 μM + MMS, no S9): 45.1% | inhibition at 250 µM ([7]; read-out: % inhibition of mutagenicity, TA 100, 250 μM + NaN3, no S9): 46.4% | inhibition at 500 µM ([7]; read-out: % inhibition of mutagenicity, TA 100, 500 μM + 2AF, S9): 83.8% | inhibition at 500 µM ([7]; read-out: % inhibition of mutagenicity, TA 100, 500 μM + BP, S9): 88.9% | inhibition at 500 µM ([7]; read-out: % inhibition of mutagenicity, TA 100, 500 μM + MMS, no S9): 65.3% | inhibition at 500 µM ([7]; read-out: % inhibition of mutagenicity, TA 100, 500 μM + NaN3, no S9): 65.9% | Number of His+ revertants colonies/plate ([7]; TA 100, 50 μM + 2AF, S9): 426.0 ± 18.6 colonies/plate | Number of His+ revertants colonies/plate ([7]; TA 100, 50 μM + BP, S9): 580.3 ± 25.6 colonies/plate | Number of His+ revertants colonies/plate ([7]; TA 100, 50 μM + MMS, no S9): 900.3 ± 16.3 colonies/plate | Number of His+ revertants colonies/plate ([7]; TA 100, 50 μM + NaN3, no S9): 340.7 ± 9.4 colonies/plate | Number of His+ revertants colonies/plate ([7]; TA 100, 100 μM + 2AF, S9): 350.0 ± 12.8 colonies/plate | Number of His+ revertants colonies/plate ([7]; TA 100, 100 μM + BP, S9): 472.3 ± 19.4 colonies/plate | Number of His+ revertants colonies/plate ([7]; TA 100, 100 μM + MMS, no S9): 754.0 ± 8.2 colonies/plate | Number of His+ revertants colonies/plate ([7]; TA 100, 100 μM + NaN3, no S9): 312.3 ± 8.4 colonies/plate | Number of His+ revertants colonies/plate ([7]; TA 100, 250 μM + BP, S9): 336.0 ± 17.6 colonies/plate | Number of His+ revertants colonies/plate ([7]; TA 100, 250 μM + MMS, no S9): 598.7 ± 14.2 colonies/plate | Number of His+ revertants colonies/plate ([7]; TA 100, 250 μM + NaN3, no S9): 266.0 ± 7.8 colonies/plate | Number of His+ revertants colonies/plate ([7]; TA 100, 500 μM + 2AF, S9): 240.7 ± 9.8 colonies/plate | Number of His+ revertants colonies/plate ([7]; TA 100, 500 μM + BP, S9): 245.7 ± 14.4 colonies/plate | Number of His+ revertants colonies/plate ([7]; TA 100, 500 μM + MMS, no S9): 420.3 ± 6.9 colonies/plate | Number of His+ revertants colonies/plate ([7]; TA 100, 500 μM + NaN3, no S9): 210.3 ± 12.4 colonies/plate
